{"source": "patent US10226472B2", "about": "“Methods for the treatment of breast cancer” (SYNDAX PHARMACEUTICALS, INC., priority 2011, dated 2019)", "key": {"[1]": {"assay": "Plasma entinostat concentration at acetylation sampling time points", "format": "in vivo, human", "details": "D8 and D15 time points used for acetylation evaluation; generally at or below the assay detection limit"}, "[2]": {"assay": "Phase 2 study of exemestane with and without entinostat: safety and tolerability (adverse events)", "format": "in vivo, human", "method": "(§1) Secondary Outcome Measures are to compare objective response rate (ORR) and clinical benefit rate (CBR), and to evaluate the safety and tolerability of entinostat in combination with exemestane as measured by adverse events and laboratory safety parameters.\nSafety was assessed by adverse events (AEs), using the National Cancer Institute Common Terminology Criteria for Adverse Events, version 3.0, electrocardiograms, hematology and serum chemistries, ECOG performance status, and vital signs.\nSafety was assessed by an independent Data Safety Monitoring Board. All participating investigators and patients remain blinded to the assigned study treatment, as post-treatment follow-up for OS is continuing."}, "[3]": {"details": "in vivo; cited from earlier work"}, "[4]": {"system": "locally recurrent or metastatic estrogen receptor-positive breast cancer", "assay": "PFS by change in protein lysine acetylation in PBMCs (biomarker subset of the Phase 2 study)", "format": "in vivo, human", "method": "The primary endpoint was progression-free survival (PFS).\nProtein lysine acetylation was measured by multi-parameter flow cytometry in peripheral blood mononuclear cells (PBMCs; CD19+ B cells, CD3+ T cells, and CD14+ monocytes) collected pre and post-treatment on D1, D8, and D15 of C1 to explore the association with PFS.\nThe association of PFS with degree of change in protein lysine acetylation from baseline in PBMCs was evaluated as an exploratory, post-hoc analysis in a subset of patients using the Cox proportional hazard model. Analyses in all 3 cell types (B cells, T cells, monocytes) was performed for consistency of results and to aid in selection of optimal cell type for analysis in future studies.\nBaseline characteristics were consistent with the overall study population (FIG. 17). Hyperacetylation in EE patients was associated with a prolonged median PFS consistent across all cell types tested (FIG. 18): 8.5 versus 2.7 months for low acetylators (HR=0.32, 95% CI 0.13, 0.79) (B cells); 6.6 versus 3.6 months for low acetylators (HR=0.44, 95% CI 0.18, 1.08) (T cells); and 6.2 versus 3.6 months for low acetylators (HR=0.50, 95% CI 0.21, 1.20) (monocytes). […] The percent change in acetylation from baseline was determined based upon the last sample obtained. The degree of change in acetylation was then dichotomized into “high” (i.e., above the median or “hyperacetylators”) and “low” (i.e., below the median) subgroups using a non-model based approach: patients with a change from baseline that was greater than or equal to the 50th percentile (median) of the overall distribution were assigned to the “high” group; patients with a change less than the 50th percentile were assigned to the “low” group. The cut-point for the analysis (50th percentile) was determined a priori, but was not based on findings from earlier studies.\nPercent change is calculated and related to progression free survival (PFS) outcome data. Hyperacetylation independent of treatment arm is defined as a percent change increase above the calculated median percent change for each cell type."}, "[5]": {"system": "locally recurrent or metastatic estrogen receptor-positive breast cancer", "assay": "Phase 2 randomized, double-blind study of exemestane with and without entinostat (ENCORE-301): efficacy", "format": "in vivo, human", "details": "for median progression-free survival (PFS) / overall survival: intent-to-treat population; for overall survival: median follow-up of 18 months", "description": "as §1\nThe primary endpoint of the study was progression-free survival. Other endpoints included objective response rate (ORR), clinical benefit rate (CBR), overall survival (OS) and safety and tolerability. All patients had received prior hormonal therapy (1 prior line 42%; >1 prior line 58%), and 33% had received prior chemotherapy in the advanced breast cancer setting.\nOne hundred thirty (130) patients were enrolled between June 2008 and July 2010 at 38 sites in North America, Central Europe, and Russia. All patients provided written informed consent. […] Randomization was stratified by 1) prior NSAI treatment setting (adjuvant/metastatic); 2) metastases in bone only (yes/no); and 3) geographic region (North America/Central Europe and Russia). The randomization schedule was prepared and maintained by an independent statistical service provider. The protocol allowed for enrollment of approximately 20% of patients with non-measurable disease.\nPostmenopausal women with ER+BC currently experiencing disease relapse or progression while receiving a NSAI were eligible. Patients either had 1) relapsed after adjuvant NSAI treatment administered for at least 12 months or 2) progressed after NSAI treatment administered for at least 3 months in the metastatic/advanced setting. One prior line of chemotherapy in the metastatic setting was permitted if given before the most recent NSAI. Within 4 weeks prior to starting study treatment, patients must have had at least 1 measurable lesion (≥20 mm by conventional techniques or ≥10 mm by spiral computed tomography [CT] scan), or with bone only metastases, a positive bone scan confirmed by magnetic resonance imaging (MRI) or positron emission tomography (PET)-CT. Additional requirements included, an Eastern Cooperative Oncology Group (ECOG) performance status of 0 or 1; adequate hematologic parameters; and creatinine, aspartate transaminase, and alanine transaminase <2.5 times the upper limit of normal. Patients with prior fulvestrant, exemestane, entinostat, or any other HDACi were excluded.\nTreatment cycles were 28 days in length. Patients were evaluated on Day (D) 1, D8, and D15 during Cycle (C) 1 and on D1 of all subsequent cycles. Peripheral blood samples were taken in a subset of patients pre- and post-dosing on D1, 8, or 15 of C1. Patient/disease response assessments were performed on D22 of C2 and every other cycle thereafter. After completing study treatment, patients entered into post-treatment follow-up for evaluation of overall survival and subsequent therapies. Patients were to be followed until death, withdrawal of consent, or study closure by the sponsor.\nDisease was evaluated using the Response Evaluation Criteria in Solid Tumors (RECIST), version 1.0. Contrast-enhanced CT scans were obtained at baseline, every other cycle for 12 months, and every third cycle thereafter. PD also was assessed by bone scan and clinical symptoms, as appropriate.\nThe primary endpoint was PFS, defined as the number of months from randomization to documented PD or death due to any cause. Secondary endpoints included overall response (OR; complete response [CR]+partial response [PR]) and clinical benefit rates (CBR; OR+stable disease [SD] for ≥6 months). Overall Survival (OS) was an exploratory endpoint.\nPFS was summarized descriptively using the Kaplan-Meier method and reported based on 116 progression events as of March 2012. The HR was estimated from a stratified Cox proportional hazards model, with placebo serving as the reference in the calculation. The primary inferential comparison between groups was made using the log-rank test, stratified by the 3 randomization factors. For patients who died before documentation of PD, death date was used as the PD date. […]"}, "[6]": {"system": "advanced BC demonstrating PD or recurrence following a NSAI", "details": "reported by Chia, et al; cited from earlier work"}, "[7]": {"details": "listed as exemestane plus placebo"}}, "note": "“And” between values parts separate entries of the source, which are not always exact repeats. Equal entries are not always repeated.", "data": [{"smiles": "Nc1ccccc1NC(=O)c1ccc(CNC(=O)OCc2cccnc2)cc1", "note": "[entinostat, N-(2-aminophenyl)-4-[N-(pyridine-3-yl)methoxycarbonylamino-methyl]-benzamide]", "values": [{"measurement": "plasma entinostat concentration", "setting": "[1]", "value": "< 0.5", "unit": "ng/mL"}, {"measurement": "neutropenia cases attributed to entinostat", "setting": "[2]; EE group, 13 of 19 cases", "value": 68, "unit": "%"}, {"measurement": "tolerability / safety profile", "setting": "[2]; Phase 2 clinical trial", "value": "acceptable safety profile"}, {"measurement": "half-life", "setting": "[3]", "value": "about 100 hours"}]}, {"smiles": "C=C1C[C@@H]2[C@H](CC[C@]3(C)C(=O)CC[C@@H]23)[C@@]2(C)C=CC(=O)C=C12", "note": "[EP, exemestane]", "values": [{"measurement": "median PFS, high acetylators (hyperacetylation)", "setting": "[4]; B cells", "value": "1.9 months and 1.92 months"}, {"measurement": "median PFS, low acetylators", "setting": "[4]; B cells", "value": 1.8, "unit": "months"}, {"measurement": "median PFS, high acetylators (hyperacetylation)", "setting": "[4]; T cells", "value": 1.77, "unit": "months"}, {"measurement": "median PFS, high acetylators (hyperacetylation)", "setting": "[4]; monocytes", "value": 1.87, "unit": "months"}, {"measurement": "median overall survival", "setting": "[5]; 23-month follow-up", "value": 19.8, "unit": "months"}, {"measurement": "incidence of death", "setting": "[5]; Example 1c analysis", "value": 65, "unit": "%"}, {"measurement": "median OS", "setting": "[5]; Example 1c analysis, ITT population", "value": 19.8, "unit": "months"}, {"measurement": "clinical benefit rate (CBR; OR+SD for >=6 months)", "setting": "[5]; ITT population", "value": 25.8, "unit": "%"}, {"measurement": "overall response (OR; CR+PR)", "setting": "[5]; ITT population, RECIST 1.0", "value": 4.6, "unit": "%"}, {"measurement": "median progression-free survival (PFS)", "setting": "[5]", "value": "2.3 months and 2.27 months"}, {"measurement": "median progression-free survival (PFS)", "setting": "[5]; listed as exemestane alone", "value": 2.3, "unit": "months"}, {"measurement": "median progression-free survival (PFS)", "setting": "[5]; [7]", "value": "2.27 months and 2.3 months"}, {"measurement": "median progression-free survival (PFS)", "setting": "[5]; listed as exemestane+placebo", "value": 2.3, "unit": "months"}, {"measurement": "overall survival", "setting": "[5]", "value": 20.3, "unit": "months"}, {"measurement": "overall survival", "setting": "[5]; [7]", "value": 20.33, "unit": "months"}, {"measurement": "serious AE rate", "setting": "[2]; Example 1a", "value": 12, "unit": "%"}, {"measurement": "incidence of serious AEs", "setting": "[2]; Example 1c, Safety Population", "value": 12, "unit": "%"}, {"measurement": "AEs leading to dose modification", "setting": "[2]; Safety Population", "value": 6, "unit": "%"}, {"measurement": "AEs leading to study discontinuation", "setting": "[2]; Safety Population", "value": 2, "unit": "%"}, {"measurement": "G4 AEs", "setting": "[2]; Safety Population", "value": 3, "unit": "%"}, {"measurement": "Grade (G) 3 AEs", "setting": "[2]; Safety Population", "value": 23, "unit": "%"}, {"measurement": "rate of AEs", "setting": "[2]; Safety Population, irrespective of study drug relationship", "value": 85, "unit": "%"}, {"measurement": "median PFS", "setting": "[6]", "value": 3.7, "unit": "months"}]}]}
